Source: publication PMC4508061, “Selectivity Profiling and Biological Activity of Novel β-Carbolines as Potent and Selective DYRK1 Kinase Inhibitors” (PLoS ONE, 2015)

Experiments:
FGF-R4 = FGF-R4 (Homo sapiens, UniProt P22455); assay: ProQinase radiometric kinase panel; conditions: mean of 2 exp.
HIPK2 [1] = target: T1, HIPK2 (Homo sapiens, UniProt Q9H2X6); assay: ProQinase radiometric kinase panel; conditions: mean of 2 exp.
MAP4K4 = MAP4K4 (Homo sapiens, UniProt O95819); assay: ProQinase radiometric kinase panel; conditions: mean of 2 exp.
KIT = KIT (Homo sapiens, UniProt P10721); assay: ProQinase radiometric kinase panel; conditions: mean of 2 exp.
Experimental: (§1) Gini coefficients were calculated and the Lorenz curve (Fig 3B) was plotted by applying the Microsoft Excel spreadsheet provided by Graczyk [44].
radiometric protein kinase assays.

ERBB2 = ERBB2 (Homo sapiens, UniProt P04626); assay: ProQinase radiometric kinase panel; conditions: mean of 2 exp.
HIPK2 [2] = target: T1, HIPK2; assay: Kinase-GLO luminescent kinase assay; assay type: biochemical; parameters: made in house; host or cells: E. coli; conditions: 10 μM compound; means of at least 3 measurements
Procedure, shortened: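 E. coli-expressed GST fusions (DYRK1A-ΔC, DYRK1B and HIPK2 catalytic domains, DYRK2) assayed in 25 mM Hepes pH 7.4, 5 mM MgCl2, 5 μM ATP with DYRKtide (20 μM for DYRKs, 100 μM for HIPK2). Kinase dosed to consume ~90% ATP; 30 min at room temperature, remaining ATP read by Kinase-GLO luminescence.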

PRKG2 = PRKG2 (Homo sapiens, UniProt Q13237); assay: ProQinase radiometric kinase panel; conditions: mean of 2 exp.
PKC-epsilon = PKC-epsilon (Homo sapiens, UniProt Q02156); assay: ProQinase radiometric kinase panel; conditions: mean of 2 exp.
EPHB1 = EPHB1 (Homo sapiens, UniProt P54762); assay: ProQinase radiometric kinase panel; conditions: mean of 2 exp.
SRPK1 = SRPK1 (Homo sapiens, UniProt Q96SB4); assay: ProQinase radiometric kinase panel; conditions: mean of 2 exp.
DMPK = DMPK (Homo sapiens, UniProt Q09013); assay: ProQinase radiometric kinase panel; conditions: mean of 2 exp.
DAPK1 = DAPK1 (Homo sapiens, UniProt P53355); assay: ProQinase radiometric kinase panel; conditions: mean of 2 exp.
DNA-PK = DNA-PK (Homo sapiens, UniProt P78527); assay: ProQinase radiometric kinase panel; conditions: mean of 2 exp.
ACK1 = ACK1 (Homo sapiens, UniProt Q07912); assay: ProQinase radiometric kinase panel; conditions: mean of 2 exp.
TYRO3 = TYRO3 (Homo sapiens, UniProt Q06418); assay: ProQinase radiometric kinase panel; conditions: mean of 2 exp.
MEK2 = MEK2 (Homo sapiens, UniProt P36507); assay: ProQinase radiometric kinase panel; conditions: mean of 2 exp.
PKA = PKA (Homo sapiens, UniProt P17612); assay: ProQinase radiometric kinase panel; conditions: mean of 2 exp.
SAK = SAK (Homo sapiens, UniProt O00444); assay: ProQinase radiometric kinase panel; conditions: mean of 2 exp.
NEK7 = NEK7 (Homo sapiens, UniProt Q8TDX7); assay: ProQinase radiometric kinase panel; conditions: mean of 2 exp.
CAMKK2 = CAMKK2 (Homo sapiens, UniProt Q96RR4); assay: ProQinase radiometric kinase panel; conditions: mean of 2 exp.
MAP3K11 = MAP3K11 (Homo sapiens, UniProt Q16584); assay: ProQinase radiometric kinase panel; conditions: mean of 2 exp.
MATK = MATK (Homo sapiens, UniProt P42679); assay: ProQinase radiometric kinase panel; conditions: mean of 2 exp.
ROCK2 = ROCK2 (Homo sapiens, UniProt O75116); assay: ProQinase radiometric kinase panel; conditions: mean of 2 exp.
NEK9 = NEK9 (Homo sapiens, UniProt Q8TD19); assay: ProQinase radiometric kinase panel; conditions: mean of 2 exp.
MAP3K10 = MAP3K10 (Homo sapiens, UniProt Q02779); assay: ProQinase radiometric kinase panel; conditions: mean of 2 exp.
CHK2 = CHK2 (Homo sapiens, UniProt O96017); assay: ProQinase radiometric kinase panel; conditions: mean of 2 exp.
TGFB-R1 = TGFB-R1 (Homo sapiens, UniProt P36897); assay: ProQinase radiometric kinase panel; conditions: mean of 2 exp.
LCK = LCK (Homo sapiens, UniProt P06239); assay: ProQinase radiometric kinase panel; conditions: mean of 2 exp.
Experimental: as §1
radiometric protein kinase assays.

JNK1 = JNK1 (Homo sapiens, UniProt P45983); assay: ProQinase radiometric kinase panel; conditions: mean of 2 exp.
CDK2/CycA2 = CDK2/CycA2 (Homo sapiens, UniProt P24941); assay: ProQinase radiometric kinase panel; conditions: mean of 2 exp.
PKC-zeta = PKC-zeta (Homo sapiens, UniProt Q05513); assay: ProQinase radiometric kinase panel; conditions: mean of 2 exp.
CK1-alpha1 = CK1-alpha1 (Homo sapiens, UniProt P48729); assay: ProQinase radiometric kinase panel; conditions: mean of 2 exp.
Sequence of CK1-alpha1 (P48729 whole entry): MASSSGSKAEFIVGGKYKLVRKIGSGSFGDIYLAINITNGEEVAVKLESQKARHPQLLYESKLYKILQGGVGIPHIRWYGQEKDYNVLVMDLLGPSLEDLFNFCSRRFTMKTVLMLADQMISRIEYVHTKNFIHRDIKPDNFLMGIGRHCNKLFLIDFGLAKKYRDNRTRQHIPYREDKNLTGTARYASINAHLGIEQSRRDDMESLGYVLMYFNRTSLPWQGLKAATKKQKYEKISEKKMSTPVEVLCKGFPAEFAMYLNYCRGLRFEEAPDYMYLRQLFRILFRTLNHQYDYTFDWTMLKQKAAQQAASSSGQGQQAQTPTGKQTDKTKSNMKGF

Sequence of PKC-zeta (Q05513 whole entry): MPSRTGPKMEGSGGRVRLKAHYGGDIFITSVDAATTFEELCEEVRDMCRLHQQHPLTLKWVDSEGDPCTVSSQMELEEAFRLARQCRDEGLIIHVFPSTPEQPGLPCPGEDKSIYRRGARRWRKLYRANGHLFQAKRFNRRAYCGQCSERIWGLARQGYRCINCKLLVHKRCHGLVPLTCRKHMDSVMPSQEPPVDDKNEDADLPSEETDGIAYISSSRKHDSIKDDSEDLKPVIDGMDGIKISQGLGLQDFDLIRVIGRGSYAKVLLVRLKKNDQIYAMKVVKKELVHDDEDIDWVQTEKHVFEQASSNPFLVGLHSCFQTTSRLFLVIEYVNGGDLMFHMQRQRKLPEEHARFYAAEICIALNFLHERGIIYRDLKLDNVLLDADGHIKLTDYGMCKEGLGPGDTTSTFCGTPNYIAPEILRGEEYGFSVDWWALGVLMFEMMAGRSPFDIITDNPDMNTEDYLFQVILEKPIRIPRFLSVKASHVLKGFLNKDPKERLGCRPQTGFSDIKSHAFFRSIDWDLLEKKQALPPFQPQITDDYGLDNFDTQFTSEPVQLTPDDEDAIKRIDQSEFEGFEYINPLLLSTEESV
Sequence of PRKG2 (Q13237 whole entry): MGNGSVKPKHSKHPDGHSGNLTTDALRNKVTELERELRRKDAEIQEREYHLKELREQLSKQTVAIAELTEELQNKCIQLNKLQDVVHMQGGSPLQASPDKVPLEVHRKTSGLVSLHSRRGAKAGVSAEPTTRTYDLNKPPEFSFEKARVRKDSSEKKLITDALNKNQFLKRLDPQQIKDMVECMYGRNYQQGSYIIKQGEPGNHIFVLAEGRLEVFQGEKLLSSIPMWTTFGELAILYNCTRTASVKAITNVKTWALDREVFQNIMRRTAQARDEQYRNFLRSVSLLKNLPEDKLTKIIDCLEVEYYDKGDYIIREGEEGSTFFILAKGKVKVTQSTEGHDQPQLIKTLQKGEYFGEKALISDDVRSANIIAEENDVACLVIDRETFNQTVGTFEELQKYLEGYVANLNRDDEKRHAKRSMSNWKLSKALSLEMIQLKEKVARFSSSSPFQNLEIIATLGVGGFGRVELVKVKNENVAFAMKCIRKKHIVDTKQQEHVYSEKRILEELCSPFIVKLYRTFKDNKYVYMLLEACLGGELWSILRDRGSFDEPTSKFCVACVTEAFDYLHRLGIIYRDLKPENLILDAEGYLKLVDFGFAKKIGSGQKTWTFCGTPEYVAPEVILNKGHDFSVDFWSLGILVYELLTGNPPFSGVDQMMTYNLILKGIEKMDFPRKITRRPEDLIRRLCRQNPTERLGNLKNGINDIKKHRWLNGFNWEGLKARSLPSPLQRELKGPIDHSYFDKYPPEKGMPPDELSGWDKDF
Sequence of CAMKK2 (Q96RR4 whole entry): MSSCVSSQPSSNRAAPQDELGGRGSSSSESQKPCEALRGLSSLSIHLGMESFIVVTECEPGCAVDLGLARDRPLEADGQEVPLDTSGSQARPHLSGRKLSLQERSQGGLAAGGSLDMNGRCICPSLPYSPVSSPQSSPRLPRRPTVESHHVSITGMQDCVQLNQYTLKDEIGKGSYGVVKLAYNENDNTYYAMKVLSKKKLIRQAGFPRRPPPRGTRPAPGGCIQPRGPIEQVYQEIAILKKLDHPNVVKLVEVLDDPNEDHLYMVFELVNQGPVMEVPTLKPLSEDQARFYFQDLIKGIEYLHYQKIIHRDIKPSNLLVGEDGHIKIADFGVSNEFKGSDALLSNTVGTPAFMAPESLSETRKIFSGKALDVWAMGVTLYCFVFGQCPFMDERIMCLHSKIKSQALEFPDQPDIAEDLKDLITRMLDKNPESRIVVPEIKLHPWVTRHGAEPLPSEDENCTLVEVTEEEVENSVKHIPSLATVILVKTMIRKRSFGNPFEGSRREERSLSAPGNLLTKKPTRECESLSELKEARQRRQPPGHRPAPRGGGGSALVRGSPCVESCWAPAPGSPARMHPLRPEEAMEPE
Sequence of MAP4K4 (O95819 whole entry): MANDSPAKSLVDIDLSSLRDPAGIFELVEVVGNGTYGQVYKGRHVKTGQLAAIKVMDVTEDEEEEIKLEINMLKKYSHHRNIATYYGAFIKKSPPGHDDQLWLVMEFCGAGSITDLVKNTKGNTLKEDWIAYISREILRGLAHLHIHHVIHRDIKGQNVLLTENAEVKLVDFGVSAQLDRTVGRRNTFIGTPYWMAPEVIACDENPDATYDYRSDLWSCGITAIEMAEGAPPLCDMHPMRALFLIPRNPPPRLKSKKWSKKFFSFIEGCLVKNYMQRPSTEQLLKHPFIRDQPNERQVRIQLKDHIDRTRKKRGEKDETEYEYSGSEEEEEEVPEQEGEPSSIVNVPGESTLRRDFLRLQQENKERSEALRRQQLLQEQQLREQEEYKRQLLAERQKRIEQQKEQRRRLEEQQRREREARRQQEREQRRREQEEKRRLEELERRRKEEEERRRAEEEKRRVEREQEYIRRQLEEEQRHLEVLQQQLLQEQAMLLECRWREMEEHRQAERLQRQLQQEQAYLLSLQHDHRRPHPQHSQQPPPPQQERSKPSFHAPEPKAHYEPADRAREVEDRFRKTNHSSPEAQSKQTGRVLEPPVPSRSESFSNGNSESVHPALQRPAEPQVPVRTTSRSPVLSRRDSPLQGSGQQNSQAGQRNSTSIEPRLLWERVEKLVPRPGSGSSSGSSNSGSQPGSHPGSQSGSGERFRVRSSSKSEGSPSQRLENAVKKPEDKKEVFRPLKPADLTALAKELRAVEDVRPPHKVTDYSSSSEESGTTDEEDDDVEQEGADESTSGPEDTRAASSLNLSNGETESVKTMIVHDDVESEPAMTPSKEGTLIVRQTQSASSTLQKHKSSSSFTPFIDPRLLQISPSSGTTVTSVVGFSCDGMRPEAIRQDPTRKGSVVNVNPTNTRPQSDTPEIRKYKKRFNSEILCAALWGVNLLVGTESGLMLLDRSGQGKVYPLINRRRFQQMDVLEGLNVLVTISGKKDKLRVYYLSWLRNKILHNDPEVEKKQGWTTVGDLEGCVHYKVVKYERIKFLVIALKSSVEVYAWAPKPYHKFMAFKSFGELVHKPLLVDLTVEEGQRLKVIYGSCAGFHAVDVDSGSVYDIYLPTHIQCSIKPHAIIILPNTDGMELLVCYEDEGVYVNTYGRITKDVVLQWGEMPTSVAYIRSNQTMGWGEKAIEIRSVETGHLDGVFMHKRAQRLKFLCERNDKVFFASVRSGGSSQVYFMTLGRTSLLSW
Sequence of TGFB-R1 (P36897 34-503): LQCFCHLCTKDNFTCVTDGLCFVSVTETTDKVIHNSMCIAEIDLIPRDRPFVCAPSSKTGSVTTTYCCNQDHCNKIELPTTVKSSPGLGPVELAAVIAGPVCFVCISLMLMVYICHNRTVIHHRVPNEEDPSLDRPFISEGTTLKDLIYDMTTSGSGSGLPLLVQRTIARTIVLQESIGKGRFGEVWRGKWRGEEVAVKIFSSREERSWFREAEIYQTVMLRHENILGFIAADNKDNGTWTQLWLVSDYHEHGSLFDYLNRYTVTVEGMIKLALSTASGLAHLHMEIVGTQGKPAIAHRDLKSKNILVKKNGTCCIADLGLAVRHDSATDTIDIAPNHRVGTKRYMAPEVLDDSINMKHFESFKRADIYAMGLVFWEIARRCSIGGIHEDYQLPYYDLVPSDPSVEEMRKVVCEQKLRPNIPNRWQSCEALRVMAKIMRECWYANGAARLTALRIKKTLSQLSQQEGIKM
Sequence of SRPK1 (Q96SB4 whole entry): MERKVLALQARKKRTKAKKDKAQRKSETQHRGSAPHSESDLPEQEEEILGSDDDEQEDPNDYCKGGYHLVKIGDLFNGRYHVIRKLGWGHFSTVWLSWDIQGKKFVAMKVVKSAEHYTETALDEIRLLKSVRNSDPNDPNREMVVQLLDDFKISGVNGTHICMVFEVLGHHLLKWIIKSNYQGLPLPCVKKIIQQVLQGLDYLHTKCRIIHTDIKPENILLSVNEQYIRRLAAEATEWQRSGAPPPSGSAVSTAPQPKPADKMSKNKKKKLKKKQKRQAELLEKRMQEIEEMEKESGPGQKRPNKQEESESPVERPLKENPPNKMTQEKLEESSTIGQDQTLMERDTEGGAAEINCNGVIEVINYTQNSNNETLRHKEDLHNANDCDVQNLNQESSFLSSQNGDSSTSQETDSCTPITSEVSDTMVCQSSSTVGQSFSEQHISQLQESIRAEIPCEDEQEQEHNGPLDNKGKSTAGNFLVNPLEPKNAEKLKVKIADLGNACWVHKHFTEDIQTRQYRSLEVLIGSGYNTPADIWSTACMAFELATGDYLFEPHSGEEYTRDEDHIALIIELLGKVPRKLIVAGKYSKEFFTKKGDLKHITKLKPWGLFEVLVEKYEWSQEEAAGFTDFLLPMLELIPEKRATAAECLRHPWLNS
Sequence of MEK2 (P36507 whole entry): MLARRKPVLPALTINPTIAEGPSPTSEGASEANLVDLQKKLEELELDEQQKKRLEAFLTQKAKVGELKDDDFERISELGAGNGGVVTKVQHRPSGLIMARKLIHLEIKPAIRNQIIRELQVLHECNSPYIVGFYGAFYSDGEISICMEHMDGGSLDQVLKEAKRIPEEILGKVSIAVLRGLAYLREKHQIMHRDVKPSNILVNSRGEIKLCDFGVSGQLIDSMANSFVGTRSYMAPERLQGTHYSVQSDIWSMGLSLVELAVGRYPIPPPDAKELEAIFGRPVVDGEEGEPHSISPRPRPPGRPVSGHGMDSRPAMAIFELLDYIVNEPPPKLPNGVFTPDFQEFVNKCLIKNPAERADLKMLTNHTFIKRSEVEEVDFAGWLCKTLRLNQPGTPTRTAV

residual activity at 1 µM, Mean (FGF-R4): 98 % of control
residual activity at 1 µM, Mean (HIPK2 [1]): 87 % of control
residual activity at 1 µM, Mean (MAP4K4): 85 % of control
residual activity at 1 µM, Mean (KIT): 82 % of control
residual activity at 1 µM, Mean (ERBB2): 102 % of control
Residual activity (% of control) HIPK2 (HIPK2 [2]): 85 % of control
residual activity at 1 µM, Mean (PRKG2): 85 % of control
residual activity at 1 µM, Mean (PKC-epsilon): 39 % of control
residual activity at 1 µM, Mean (EPHB1): 89 % of control
residual activity at 1 µM, Mean (SRPK1): 111 % of control
residual activity at 1 µM, Mean (DMPK): 101 % of control
residual activity at 1 µM, Mean (DAPK1): 91 % of control
residual activity at 1 µM, Mean (DNA-PK): 63 % of control
residual activity at 1 µM, Mean (ACK1): 97 % of control
residual activity at 1 µM, Mean (TYRO3): 93 % of control
residual activity at 1 µM, Mean (MEK2): 37 % of control
residual activity at 1 µM, Mean (PKA): 105 % of control
residual activity at 1 µM, Mean (SAK): 112 % of control
residual activity at 1 µM, Mean (NEK7): 93 % of control
residual activity at 1 µM, Mean (CAMKK2): 86 % of control
residual activity at 1 µM, Mean (MAP3K11): 98 % of control
residual activity at 1 µM, Mean (MATK): 102 % of control
residual activity at 1 µM, Mean (ROCK2): 79 % of control
residual activity at 1 µM, Mean (MAP3K10): 91 % of control
residual activity at 1 µM, Mean (CHK2): 102 % of control
residual activity at 1 µM, Mean (TGFB-R1): 104 % of control
residual activity at 1 µM, Mean (LCK): 91 % of control
residual activity at 1 µM, Mean (JNK1): 99 % of control
residual activity at 1 µM, Mean (CDK2/CycA2): 88 % of control
residual activity at 1 µM, Mean (PKC-zeta): 97 % of control
residual activity at 1 µM, Mean (CK1-alpha1): 90 % of control
Structure (SMILES): COc1ccc2c3ccnc(Cl)c3n(CC#N)c2c1 [AnnH75]
residual activity at 1 µM, Mean (NEK9): 95 % of control
